According to patent publication US20150157691A1, “Galectin-3 to Treat Ovarian Cancer” (Texas Tech University System, priority 2013, published 2015):

Columns and labels:
[1] = system: OC cells; assay: Matrigel invasion assay; type: cell-based; conditions: 48-hour treatment; 10 μg/mL Gal-3C, 8 nM paclitaxel or combined; compared with controls
Description: Invasion assay. OC invasion potential was measured as described (25), using Transwell™ polycarbonate inserts (5-μm pore size).
Gal-3C reduced OC invasion and migration alone and in combination with paclitaxel. After 48-hour treatment with 10 μg/mL Gal-3C, 8 nM paclitaxel, or combined drugs, OC cells were tested for in vitro invasivity and motility abilities as described in methods.

[2] = compared with available standard treatments; cited from earlier work
[3] = system: ID8; assay: Cell viability (ViaLight Plus), ID8; type: cell-based, murine; conditions: Gal-3C single agent, escalating concentrations (0, 2, 10, 20 μg/mL), 48 hours, on average
Description: (§1) Cell viability. Cell proliferation was assessed with a ViaLight Plus Cell Proliferation and Cytotoxicity BioAssay Kit (Lonza, Walkersville, Md., USA) according to the directions of the manufacturer. In brief, OC cells were seeded in 100 μL RPMI-1640 with 10% heat-inactivated FBS in 96-well plates (8×10^3/well). Each drugs/drug combination was tested in triplicate. Luminescence was measured with a 1-s integrated setting in a Berthold luminometer.
(§2) Administration of Gal-3C reduced OC cell viability when used as a single agent and improved the effects of paclitaxel. OC cells were treated with escalating concentrations of Gal-3C (0, 2, 10, and 20 μg/mL) for 48 hours, then viability was measure as described in methods, and expressed as percentage of control cells (treated with equal amounts of drug vehicle). […] On average, viability was reduced by 25% in SKOV-3, 50% in ID8, 29% in Pt1 and 57% in Pt2 cells. Then, in a separate set of experiments, OC cells were treated for 48 hours with 10 μg/mL Gal-3C, 8 nM paclitaxel, or combined 10 μg/mL Gal-3C+8 nM paclitaxel.

[4] = system: HUVEC cells; assay: In vitro tubule formation (angiogenesis) assay with OC conditioned media; type: cell-based, human; conditions: for formation of vessel-like structures by HUVEC cells: conditioned media (20% V/V) of OC cells pre-treated 48 hours, 10 μg/mL Gal-3C, 8 nM paclitaxel or combination; for average number of branching points: conditioned media of 48-h treated OC cells, all tested OC cells, compared with vehicle-treated cells; for tubule formation, direct effect of drugs: conditioned media of untreated OC cells (20% V/V) supplemented with 10 μg/mL Gal-3C, 8 nM paclitaxel or both, results not shown
Description: Tubule formation assay. A capillary tubule formation assay was performed as previously described (25). Briefly, growth factor-reduced Matrigel™ (50 μL/well; Becton Dickinson) was added with 30 ng/mL recombinant basic fibroblastic growth factor (bFGF; R&D Systems) and incubated for 1 hour at 37° C. 2-h serum-starved HUVEC cells (5,000), were resuspended in 200 μL serum-free EGM-2 medium (Lonza) supplemented with 20% V/V conditioned medium from differently treated OC cells (obtained after 48-h treatment of OC cells with 10 μg/mL Gal-3C, 8 nM paclitaxel, the combination of both, or 0.6% V/V PBS as drug vehicle). HUVEC were then seeded onto the Matrigel™ and incubated at 37° C. and 5% CO2 for 16 hours to allow tubule formation. The assays were run in triplicate, and microphotographs were taken using 40× and 20× objectives with an inverted X71 microscope (Olympus). Pictures were also used to count the number of branching points originated by HUVEC cells, as a measure of the degree of angiogenesis, by the Wimasis WimTube software (Wimasis GmbH, Munich, Germany). Statistically significant differences in the number of branching points were analyzed by the Kruskal-Wallis test followed by a Dunns post-test, to compare all the treatment groups with each other.
Gal-3C blocked OC cell angiogenic potential and αvβ3 integrin clustering. To study the effects of Gal-3C on OC cells ability to induce the formation of new vessels, an in vitro tubule formation assay was carried out using HUVEC cells stimulated with the conditioned media (20% V/V) of OC cells pre-treated for 48 hours with 10 μg/mL Gal-3C, 8 nM paclitaxel, or a combination of both treatments. […] The amount of branching points was also calculated through the Wimasis WimTube software, as described hereinabove. […] A parallel set of experiments were performed using a mixture consisting of the 48-hour conditioned media of each untreated OC cell line (20% V/V) supplemented with 10 μg/mL Gal-3C, 8 nM paclitaxel, or 10 μg/mL Gal-3C+8 nM paclitaxel. […] This outcome on in vitro angiogenesis was correlated with an evident reduction in the clusters of αvβ3 integrins (FIG. 7).

[5] = system: OC cells; assay: Transwell migration assay of OC cells; type: cell-based; conditions: 48-hour treatment; 10 μg/mL Gal-3C, 8 nM paclitaxel or combined; compared with controls
Description: Migration assays. 4×10^5 cells were plated in 100 μL serum-free culture medium (supplemented with drugs or vehicle) in the top chambers of 24-well Transwell™ polycarbonate inserts (Corning Costar, NY, USA) with 8-μm pores. Complete culture medium (600 μL) was added to the bottom chamber. After incubation for 4 hours, cells on lower side of the filter were fixed, stained and counted as described (25).
After 48-hour treatment with 10 μg/mL Gal-3C, 8 nM paclitaxel, or combined drugs, OC cells were tested for in vitro invasivity and motility abilities as described in methods.

[6] = system: Pt2; assay: Cell viability (ViaLight Plus), primary OC cells Pt2; type: cell-based, human; conditions: Gal-3C single agent, escalating concentrations (0, 2, 10, 20 μg/mL), 48 hours, on average
Description: (§3) Cells. The OC cell lines used in this study were SKOV-3 and ID8 (American Type Culture Collection, Manassas, Va., USA), while primary epithelial OC cells from two patients were obtained with approval from the Texas Tech University HSC IRB (L-Micro Study, IRB NUMBER: L04-095), and the patients' written informed consent. All OC cells were cultured in RPMI-1640 medium supplemented with 10% fetal bovine serum (FBS, Thermo Scientific, Rockford, Ill., USA) in 5% CO2 atmosphere at 37° C. Human Umbilical Vein Endothelial Cells (HUVEC, American Type Culture Collection) were maintained in EGM-2 medium supplemented with endothelial cells growth factors (Lonza, Houston, Tex., USA) and were used within 10 passages.
(§4) Cell viability. Cell proliferation was assessed with a ViaLight Plus Cell Proliferation and Cytotoxicity BioAssay Kit (Lonza, Walkersville, Md., USA) according to the directions of the manufacturer. […] Luminescence was measured with a 1-s integrated setting in a Berthold luminometer.
(§5) Administration of Gal-3C reduced OC cell viability when used as a single agent and improved the effects of paclitaxel. OC cells were treated with escalating concentrations of Gal-3C (0, 2, 10, and 20 μg/mL) for 48 hours, then viability was measure as described in methods, and expressed as percentage of control cells (treated with equal amounts of drug vehicle). […]

[7] = system: HUVEC cells; assay: Vascular endothelial cell (HUVEC) Transwell migration assay with OC conditioned medium; type: cell-based, human; conditions: for HUVEC migration induced by conditioned media of treated OC cells: conditioned media from SKOV-3 cells treated 48 hours, 10 μg/mL Gal-3C or 8 nM paclitaxel, compared with controls; for HUVEC chemotaxis, direct effect of residual drugs: control OC-conditioned medium supplemented with 2 μg/mL Gal-3C, 1.6 nM paclitaxel, or combined, results not shown
Description: The experiments were run in triplicate and the results are expressed as the mean number of migrated cells in the presence of different stimuli.
After 48-hour treatments (10 μg/mL Gal-3C, 8 nM paclitaxel, or combined drugs), the conditioned media form SKOV-3 cells was harvested and tested for its ability to induce migration of HUVEC cells in a Transwell assay. […] To test if residual drugs in the conditioned media could inhibit HUVEC migration, a migration assay was performed in the presence of control OC-conditioned medium supplemented with 20% of drug amounts (2 μg/mL Gal-3C, 1.6 nM paclitaxel, and combined drugs).

[8] = system: OC cells (SKOV-3, ID8, Pt1, Pt2); assay: Cell viability, statements for all OC cells tested; type: cell-based; conditions: 48 hours
Description: as §1, §2

[9] = system: SKOV-3; assay: Cell viability (ViaLight Plus), SKOV-3; type: cell-based, human; conditions: Gal-3C single agent, escalating concentrations (0, 2, 10, 20 μg/mL), 48 hours, on average
Description: as §1, §2

[10] = system: αvβ3 integrin clusters in HUVEC cells; assay: αvβ3 integrin clustering assay; type: cell-based, human; conditions: conditioned medium of OC cells pre-treated 48 h; 10 μg/mL Gal-3C, 8 nM paclitaxel or combined
Description: αvβ3 integrin clustering assay. HUVEC cells were cultured in 8-chamber slides coated with 10 μg/mL fibronectin (10^4 cells/chamber). Cells were incubated with conditioned medium of SKOV-3 cells (obtained as described for the tubule formation assay) for 20 minutes to allow integrin clustering, then fixed with 4% WN buffered (pH=7.5) paraformaldehyde in PBS (10 minutes at 37° C.). Then, cells were incubated with 10 μg/mL anti-integrin αvβ3 antibody (R&D Systems, 1:200 dilution in PBS) for 1 hour at RT, followed by two washing steps in PBS (5 minutes each) prior to the addition of FITC-anti-mouse IgG (1:1000 dilution in PBS) for 1 hour at RT. Microphotographs of randomly selected fields were acquired at 60× magnification by confocal microscopy (Leica TCS-SL Confocal Spectral Microscope System, Leica Microsystems, Buffalo Grove, Ill., USA).
Gal-3C blocked OC cell angiogenic potential and αvβ3 integrin clustering. To study the effects of Gal-3C on OC cells ability to induce the formation of new vessels, an in vitro tubule formation assay was carried out using HUVEC cells stimulated with the conditioned media (20% V/V) of OC cells pre-treated for 48 hours with 10 μg/mL Gal-3C, 8 nM paclitaxel, or a combination of both treatments. […] The amount of branching points was also calculated through the Wimasis WimTube software, as described hereinabove. […]

[11] = system: Akt/NF-κB pathway; assay: Western blotting of Akt/NF-κB pathway activation in OC cells; type: cell-based; conditions: 48 hours, Western blot; for levels of phosphorylated, active NF-κB (P-p65) / phospho-Akt (P-Akt) levels: 10 μg/mL Gal-3C, 8 nM paclitaxel or combined
Description: Western blotting. Cells were harvested and washed twice with PBS, then lysed (25), and resolved on 12% Bis-Tris (Bis(2-hydroxyethyl)-amino-tris(hydroxymethyl)-methane) poly-acrylamide gel (Invitrogen) and then electrotransferred onto 0.2 μm nitrocellulose membrane. After rinsing in PBS-Tween, the blot was incubated in protein-free blocking buffer (Pierce/Thermo) at 4° C. overnight, then incubated with the indicated primary antibodies (Cell Signaling Technology, Inc., Danvers, Mass. USA) diluted in blocking buffer for 2 hours at RT. After washing 5 times with PBS-Tween, the blot was incubated with matched horseradish peroxidase-coupled secondary antibodies, and developed with the ECL Western blotting Detection System from Perkin-Elmer Life Sciences (Boston, Mass., USA).
Gal-3C reversed the effect of paclitaxel on NF-κB activation by reducing the phosphorylation of Akt. OC cells treated for 48 hours with 10 μg/mL Gal-3C, 8 nM paclitaxel, or combined treatments as described above, then protein extracts were analyzed by Western blotting. […] Increased or decreased levels of p65 phosphorylation (P-p65) were in accordance with higher or lower levels (respectively) of IKB and IKKα/β phosphorylation, as expected. […] To rule out the possibility that alterations in the phosphorylation of p-65, IKB, IKK, or Akt were the results of modulations in the expression levels, total p-65, IKB, IKK, or Akt (phosphorylated and not-phosphorylated forms) were also examined (FIGS. 3A and 3B).

[12] = system: Pt1; assay: Cell viability (ViaLight Plus), primary OC cells Pt1; type: cell-based, human; conditions: Gal-3C single agent, escalating concentrations (0, 2, 10, 20 μg/mL), 48 hours, on average
Description: as §3, §4, §5

Q: For “Gal-3C: truncated, dominant-negative form of Galectin-3; last 143 carboxy-terminal amino acid residues of human Galectin-3 (SEQ ID NO. 4)”, which OC cell invasion [1] is on record?
A: significantly reduced

Q: And the toxicity profile [2]?
A: very low toxicity profile

Q: And the “viability reduced (percentage of control cells)” value [3]?
A: 50%

Q: And the “formation of vessel-like structures by HUVEC cells” value [4]?
A: significantly reduce

Q: And the “average number of branching points” value [4]?
A: significantly reduced

Q: What about the “tubule formation, direct effect of drugs” value [4] of the same molecule?
A: unable to significantly affect tubule formation

Q: And the OC cell migration [5]?
A: significantly reduced

Q: What about the “viability reduced (percentage of control cells)” value [6] of the same molecule?
A: 57%

Q: What about the “HUVEC migration induced by conditioned media of treated OC cells” value [7] of the same molecule?
A: significant effect

Q: What about the “HUVEC chemotaxis, direct effect of residual drugs” value [7] of the same molecule?
A: did not significantly affect HUVEC chemotaxis

Q: And the “concentration from which cell viability is significantly reduced” value ([8]; 0, 2, 10, 20 μg/mL tested)?
A: ≥ 10 µg/mL

Q: What about the “cell viability, comparison between treatments” value ([8]; 10 μg/mL Gal-3C, 8 nM paclitaxel or combined) of the same molecule?
A: more effective in reducing cell viability compared with paclitaxel in all cell lines except SKOV-3

Q: And the “viability reduced (percentage of control cells)” value [9]?
A: 25%

Q: And the “αvβ3 integrin clusters in HUVEC cells” value [10]?
A: completely abrogated

Q: And the “phosphorylated IKKB, IKK levels” value ([11]; 10 μg/mL Gal-3C alone, compared with controls)?
A: reduction

Q: And the “levels of phosphorylated, active NF-κB (P-p65)” value [11]?
A: reduction

Q: What about the “phospho-Akt (P-Akt) levels” value [11] of the same molecule?
A: reduction

Q: What about the “viability reduced (percentage of control cells)” value [12] of the same molecule?
A: 29%

Q: For `CC(=O)O[C@H]1C(=O)[C@@]2(C)[C@H]([C@H](OC(=O)c3ccccc3)[C@]3(O)C[C@H](OC(=O)[C@H](O)[C@@H](NC(=O)c4ccccc4)c4ccccc4)C(C)=C1C3(C)C)[C@]1(OC(C)=O)CO[C@@H]1C[C@@H]2O` [paclitaxel, Paclitaxel, reference compound], which “formation of vessel-like structures by HUVEC cells” value [4] is on record?
A: significantly reduce

Q: And the “average number of branching points” value [4]?
A: significantly reduced

Q: What about the “tubule formation, direct effect of drugs” value [4] of the same molecule?
A: unable to significantly affect tubule formation

Q: And the “HUVEC migration induced by conditioned media of treated OC cells” value [7]?
A: unable to reduce the production of HUVEC chemotactic factors

Q: And the “HUVEC chemotaxis, direct effect of residual drugs” value [7]?
A: did not significantly affect HUVEC chemotaxis

Q: And the “αvβ3 integrin clusters in HUVEC cells” value [10]?
A: still preserved the ability to induce αvβ3 integrin cluster in HUVEC cells (even if at a lower extent compared with control)

Q: What about the “levels of phosphorylated, active NF-κB (P-p65)” value [11] of the same molecule?
A: increased

Q: What about the “phospho-Akt (P-Akt) levels” value [11] of the same molecule?
A: increased
